Data from the supplement of paper PMC5412046.
Counter-ions that a name gives are not always drawn.

Experiments:
[1] = system: SB.mhdgc-1; assay: viability at highest tested concentration (MAXR) relative to DMSO; higher = less cytotoxic; details: SB.mhdgc-1 (hereditary c.1380delA CDH1 gastric cancer)
Summary of the method: (§1)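 Compound in DMSO was pinned (23 nL) at 11 threefold-diluted concentrations into wells containing 500 patient-derived gastric cancer cells, hereditary or sporadic, in 5 μL medium per 1536 well. Cells were incubated for 48 h, then exposed to CellTiter-Glo for 30 min at room temperature. Luminescence was measured on a ViewLux. The values are viability normalised to DMSO, either at the highest concentration or as trapezoidal area under the curve.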

[2] = system: SB.msgc-1; assay: as above; details: SB.msgc-1 (sporadic gastric cancer)
Summary of the method: as §1

[3] = system: SB.mhdgc-1; assay: area under the dose-response curve of % viability (trapezoidal, 11 doses) (% viability x log10 concentration); higher = less cytotoxic; details: SB.mhdgc-1 (hereditary c.1380delA CDH1 gastric cancer)
Summary of the method: as §1

[4] = system: SB.msgc-1; assay: as above; details: SB.msgc-1 (sporadic gastric cancer)
Summary of the method: as §1

| Compound | viability [1] [%] | viability [2] [%] | area under the dose-response curve [3] | area under the dose-response curve [4] |
| --- | --- | --- | --- | --- |
| Clc1ccc2c(N3CCN(CCCN4CCN(c5ccnc6cc(Cl)ccc56)CC4)CC3)ccnc2c1 [Piperaquine] (top concentration 23.0415 µM) | 78.2 | 97.8 | 507 | 534 |
| O=C(/C=C/C=C/c1ccc2c(c1)OCO2)N1CCCCC1 [Piperine] (top concentration 46.0829 µM) | 131 | 93 | 535 | 537 |
| COc1cccc2c1C(=O)c1c(O)c3c(c(O)c1C2=O)C[C@@](O)(C(=O)CO)C[C@@H]3O[C@H]1C[C@H](N)[C@H](O[C@H]2CCCCO2)[C@H](C)O1 [Pirarubicin] (top concentration 46.0829 µM) | 22.4 | 31.3 | 367 | 437 |
| CN1\C(=C(\O)C2=C(C=CC=C2)[S+]1([O-])=O)C(=O)NC3=CC=CC=N3 [Piroxicam] (top concentration 46.0829 µM) | 63.8 | 88.3 | 442 | 517 |
| O=C([O-])C[C@H](O)C[C@H](O)/C=C/c1c(C2CC2)nc2ccccc2c1-c1ccc(F)cc1 [Pitavastatin calcium] (top concentration 46.0829 µM) | 85.8 | 82 | 489 | 528 |
| CN1CCC(=C2c3ccccc3CCc3sccc32)CC1 [Pizotifen] (top concentration 46.0829 µM) | 66.1 | 100 | 588 | 560 |
| c1cc(CN2CCCNCCNCCCNCC2)ccc1CN1CCCNCCNCCCNCC1 [Plerixafor hydrochloride] (top concentration 46.0829 µM) | 109 | 81.5 | 579 | 450 |
| CC(C)(C)c1[nH]cnc1/C=c1\[nH]c(=O)/c(=C/c2ccccc2)[nH]c1=O [Plinabulin] (top concentration 92.1659 µM) | 3.33 | 2.47 | 327 | 227 |
| Cc1cc(Nc2ncc3c(n2)N(C)C(=O)N(c2cc(NC(=O)c4cccc(C(F)(F)F)c4)ccc2C)C3)n(C)n1 [Pluripotin] (top concentration 46.0829 µM) | 40.4 | 45.8 | 429 | 438 |
| OC[C@H]1O[C@@H](Oc2cc(O)cc(/C=C/c3ccc(O)cc3)c2)[C@H](O)[C@@H](O)[C@@H]1O [Polydatin] (top concentration 46.0829 µM) | 76.4 | 55.8 | 594 | 537 |
| CCC(C)CCCCC(=O)N[C@@H](CCN)C(=O)NC(C(=O)N[C@H](CCN)C(=O)N[C@@H]1CCNC(=O)C([C@@H](C)O)NC(=O)[C@@H](CCN)NC(=O)[C@@H](CCN)NC(=O)[C@@H](CC(C)C)NC(=O)[C@H](Cc2ccccc2)NC(=O)[C@H](CCN)NC1=O)[C@@H](C)O (stereo partly drawn) [Polymyxin B sulphate] (top concentration 46.0829 µM) | 109 | 102 | 563 | 527 |
| Nc1cccc2c1C(=O)N(C1CCC(=O)NC1=O)C2=O (stereo not drawn) [Pomalidomide] (top concentration 46.0829 µM) | 124 | 115 | 526 | 538 |
| CC[C@@H]([C@H](C)O)n1ncn(-c2ccc(N3CCN(c4ccc(OCC5CO[C@@](Cn6cncn6)(c6ccc(F)cc6F)C5)cc4)CC3)cc2)c1=O (stereo partly drawn) [Posaconazole] (top concentration 46.0829 µM) | 40.4 | 25.3 | 448 | 440 |
| CCCCc1nc2cc(/C=C/C(=O)NO)ccc2n1CCN(CC)CC [Pracinostat] (top concentration 46.0829 µM) | 37 | 4.7 | 442 | 251 |
| C#CCC(Cc1cnc2nc(N)nc(N)c2n1)c1ccc(C(=O)N[C@@H](CCC(=O)O)C(=O)O)cc1 (stereo partly drawn) [Pralatrexate] (top concentration 46.0829 µM) | 55.7 | 36.8 | 394 | 332 |
| CCCN[C@H]1CCc2nc(N)sc2C1 [Pramipexole hydrochloride] (top concentration 46.0829 µM) | 85.9 | 113 | 495 | 506 |
| CC(C)N(CCNC(=O)CN1CCCC1=O)C(C)C [Pramiracetam hydrochloride] (top concentration 46.0829 µM) | 126 | 124 | 584 | 559 |
| O=C(Nc1cccc2c(=O)cc(-c3nnn[nH]3)oc12)c1ccc(OCCCCc2ccccc2)cc1 [Pranlukast hydrate] (top concentration 46.0829 µM) | 9.85 | 30.2 | 499 | 316 |
| CC(=O)Oc1cc2c(s1)CCN(C(C(=O)C1CC1)c1ccccc1F)C2.Cl (stereo not drawn) [Prasugrel] (top concentration 46.0829 µM) | 63.9 | 59 | 417 | 452 |
| COc1ccc(C(=O)c2c(C)n(CCN3CCOCC3)c3ccccc23)cc1 [Pravadoline] (top concentration 46.0829 µM) | 114 | 94.5 | 563 | 463 |
| CC[C@H](C)C(=O)O[C@H]1C[C@H](O)\C=C2\C=C/[C@H](C)[C@H](CC[C@@H](O)C[C@@H](O)CC(O)=O)[C@@H]12 [Pravastatin sodium] (top concentration 46.0829 µM) | 121 | 91.1 | 557 | 525 |
| O=C(C1CCCCC1)N1CC(=O)N2CCc3ccccc3C2C1 (stereo not drawn) [Praziquantel] (top concentration 46.0829 µM) | 125 | 107 | 515 | 505 |
